Active and inactive are the calls of the source. The rule behind the calls is not given here.
Legend:
Format in all cases: functional, organism-based
[1] = system: Plasmodium falciparum; assay: In vitro inhibition of multidrug-resistant Plasmodium falciparum K1; […]
[2] = system: Mus musculus; assay: In vivo antimalarial activity against Plasmodium chabaudi in BALB/c mice (Mus musculus) at a dose of 0.25 mg/kg; active; set-up: dose 0.25 mg/kg
[3] = system: Plasmodium falciparum; assay: In vitro inhibition of multidrug-resistant Plasmodium falciparum K1

SMILES | IC50 [1] | Activity [2] | IC50 [3]
COc1cc2c(cc1OC)-c1cc3cc(OC)c(OC)cc3c[n+]1CC2.[Cl-] | 0.8 µg/mL | Active | –
COc1cc2c(cc1OC)-c1c(N)c3cc(OC)c(OC)cc3c[n+]1CC2.[Cl-] | 0.8 µg/mL | Active | –
COc1ccc2cc3[n+](cc2c1OC)CCc1cc2c(cc1-3)OCO2.[Cl-] [BERBERINE CHLORIDE] | – | – | 0.36 µg/mL
COc1cc2c(cc1OC)-c1cc3c(OC)c(OC)ccc3c[n+]1CC2.[Cl-] | 0.8 µg/mL | – | –

Source: ChEMBL document CHEMBL1152011, “The first protoberberine alkaloid analogue with in vivo antimalarial activity” (Bioorg Med Chem Lett, 1994)
